Measured values reported in patent publication US12329769B2, “Use of Abelmoschi corolla extract in preparation of drug for treating fibrosis” (SUZHONG PHARMACEUTICAL GROUP CO., LTD., priority 2019, dated 2025).

Tests used:
[1] = tested on: fibrosis of NRK-49F cells stimulated by TGF-β1; assay: In-vitro anti-fibrosis effect: WB of Collagen I and α-SMA in NRK-49F cells stimulated by TGF-β1; type: cell-based; settings: 30 μM monomer constituent, added 30 minutes before TGF-β1, co-incubation 24 hours, FIG. 3
Protocol: NRK-49F cells were inoculated into a 6-well plate at a density of 5×10^5 cells/well, and cultured in a DMEM medium containing 10% fetal bovine serum for 16 hours. After adding 50 μg/mL Abelmoschi corolla extract and each elution fraction constituent of macroporous resin and 30 μM monomer constituent of Abelmoschus manihot for 30 minutes, 10 mg/mL TGF-β1 was added. After co-incubation for 24 hours, cell proteins were extracted for a WB experiment to detect expression of Collagen I and α-SMA proteins, so as to judge the in-vitro anti-fibrosis effects of the Abelmoschi corolla extract and each elution constituent of macroporous resin and the monomer constituent.

[2] = tested on: NRK-49F cells; assay: MTT test of effect on activity of NRK-49F cells; type: cell-based; settings: 30 μM monomer constituent, co-incubation 24 hours
Protocol: NRK-49F cells were inoculated into a 96-well plate at a density of 5×10^3 cells/well, and cultured in a DMEM medium containing 10% fetal bovine serum for 16 hours. 50 μg/mL gradient elution constituent solution of macroporous resin of an Abelmoschi corolla extract or 30 μM of monomer constituents of the Abelmoschi corolla extract were added. After co-incubation for 24 hours, an original culture solution was removed, and 100 μL of 0.5 mg/mL MTT was added into each well. After incubation in an incubator for 4 hours, a staining solution was removed, and 150 μL of DMSO was added for detection by a microplate reader.

activity of the NRK-49F cells (MTT) [2] | Structure (SMILES) | expression of Collagen I protein (WB) [1] | expression of α-SMA protein (WB) [1]
 | O=C(O)C1OC(Oc2c(O)cc(O)c3c(=O)c(OC4OC(CO)C(O)C(O)C4O)c(-c4ccc(O)c(O)c4)oc23)C(O)C(O)C1O [compound 6, Gossypetin-3-O-β-D-glucose-8-O-β-D-glucuronide] | significantly inhibit | significantly inhibit
significantly inhibit | O=c1c(O)c(-c2cc(O)c(O)c(O)c2)oc2cc(O)cc(O)c12 [compound 18, Myricetin] |  | 
 | O=c1c(O)c(-c2ccc(O)c(O)c2)oc2cc(O)cc(O)c12 [compound 20, Quercetin] | significantly inhibit | significantly inhibit
